We go through 17 molecules from ChEMBL document CHEMBL3785058, “Design and synthesis of novel 3-sulfonylpyrazol-4-amino pyrimidines as potent anaplastic lymphoma kinase (ALK) inhibitors” (Bioorg Med Chem Lett, 2016).

A short description of assay [1]: Antiproliferative activity against human KARPAS299 cells after 96 hrs by CellTiter-Glo assay. The format is functional, cell-based. As to conditions: KARPAS-299, 96 h.
For the next assay, the system named is NCI-H2228. Briefly: Antiproliferative activity against human NCI-H2228 cells after 96 hrs by CellTiter-Glo assay. As to conditions: NCI-H2228, 96 h. Type of assay: functional, cell-based.
For assay [2], the target named is ALK tyrosine kinase receptor (Homo sapiens, UniProt Q9UM73). Description: Inhibition of recombinant human wild type ALK using tyrosine kinase substrate-biotin after 30 mins by HTRF assay.
Assay [3] addresses ALK tyrosine kinase receptor (Homo sapiens, UniProt Q9UM73, L1196M). Description: Inhibition of recombinant human ALK L1196M mutant using tyrosine kinase substrate-biotin after 30 mins by HTRF assay.
Assay [4] is described as follows: Ratio of IC50 for human ERG to IC50 for human NCI-H2228 cells.

pIC50: −log10 of the molar value.

ALK tyrosine kinase receptor (Homo sapiens, UniProt Q9UM73), sequence (Q9UM73 whole entry): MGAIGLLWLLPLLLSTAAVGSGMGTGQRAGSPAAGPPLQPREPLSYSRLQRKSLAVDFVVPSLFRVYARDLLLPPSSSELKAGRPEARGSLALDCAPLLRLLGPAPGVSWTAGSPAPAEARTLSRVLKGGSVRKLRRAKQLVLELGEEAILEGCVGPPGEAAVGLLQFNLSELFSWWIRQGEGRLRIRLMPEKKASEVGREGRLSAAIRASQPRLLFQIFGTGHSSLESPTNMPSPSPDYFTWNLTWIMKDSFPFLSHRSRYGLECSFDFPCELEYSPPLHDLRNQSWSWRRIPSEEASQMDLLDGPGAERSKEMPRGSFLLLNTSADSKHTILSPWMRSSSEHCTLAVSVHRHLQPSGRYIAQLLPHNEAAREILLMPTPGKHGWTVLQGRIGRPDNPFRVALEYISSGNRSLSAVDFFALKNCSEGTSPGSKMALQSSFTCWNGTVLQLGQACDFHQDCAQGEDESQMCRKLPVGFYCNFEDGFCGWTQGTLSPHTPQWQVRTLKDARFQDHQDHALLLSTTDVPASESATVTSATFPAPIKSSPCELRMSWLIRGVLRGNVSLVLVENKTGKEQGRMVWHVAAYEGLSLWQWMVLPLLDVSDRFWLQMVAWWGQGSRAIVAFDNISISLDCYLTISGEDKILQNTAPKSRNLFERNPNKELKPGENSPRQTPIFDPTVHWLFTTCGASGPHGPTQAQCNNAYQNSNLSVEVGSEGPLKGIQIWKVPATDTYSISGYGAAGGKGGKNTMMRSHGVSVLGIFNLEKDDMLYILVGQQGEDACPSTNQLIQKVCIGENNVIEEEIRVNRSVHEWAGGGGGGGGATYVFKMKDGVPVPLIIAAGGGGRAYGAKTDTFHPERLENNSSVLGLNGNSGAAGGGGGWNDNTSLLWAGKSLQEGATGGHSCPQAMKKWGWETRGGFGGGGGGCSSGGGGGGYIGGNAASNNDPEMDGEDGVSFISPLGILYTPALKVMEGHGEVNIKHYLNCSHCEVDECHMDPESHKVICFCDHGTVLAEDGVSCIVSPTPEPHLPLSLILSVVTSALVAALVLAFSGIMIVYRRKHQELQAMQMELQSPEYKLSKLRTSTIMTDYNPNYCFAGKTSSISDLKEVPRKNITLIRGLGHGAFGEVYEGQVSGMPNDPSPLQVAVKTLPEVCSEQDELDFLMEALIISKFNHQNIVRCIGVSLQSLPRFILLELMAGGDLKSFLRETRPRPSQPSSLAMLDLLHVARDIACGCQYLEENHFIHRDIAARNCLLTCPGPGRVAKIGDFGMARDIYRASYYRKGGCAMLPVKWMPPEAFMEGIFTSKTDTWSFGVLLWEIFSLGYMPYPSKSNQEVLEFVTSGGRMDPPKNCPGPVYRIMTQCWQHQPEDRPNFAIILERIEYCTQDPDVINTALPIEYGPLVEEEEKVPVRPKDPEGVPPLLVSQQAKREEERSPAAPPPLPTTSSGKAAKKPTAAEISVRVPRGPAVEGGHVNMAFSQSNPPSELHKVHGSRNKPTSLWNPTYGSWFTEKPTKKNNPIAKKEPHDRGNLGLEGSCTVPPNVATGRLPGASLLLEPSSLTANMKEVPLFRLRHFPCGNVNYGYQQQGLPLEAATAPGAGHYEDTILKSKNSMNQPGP
ALK tyrosine kinase receptor (Homo sapiens, UniProt Q9UM73, L1196M), sequence (Q9UM73 19-1620 L1196M limits assumed): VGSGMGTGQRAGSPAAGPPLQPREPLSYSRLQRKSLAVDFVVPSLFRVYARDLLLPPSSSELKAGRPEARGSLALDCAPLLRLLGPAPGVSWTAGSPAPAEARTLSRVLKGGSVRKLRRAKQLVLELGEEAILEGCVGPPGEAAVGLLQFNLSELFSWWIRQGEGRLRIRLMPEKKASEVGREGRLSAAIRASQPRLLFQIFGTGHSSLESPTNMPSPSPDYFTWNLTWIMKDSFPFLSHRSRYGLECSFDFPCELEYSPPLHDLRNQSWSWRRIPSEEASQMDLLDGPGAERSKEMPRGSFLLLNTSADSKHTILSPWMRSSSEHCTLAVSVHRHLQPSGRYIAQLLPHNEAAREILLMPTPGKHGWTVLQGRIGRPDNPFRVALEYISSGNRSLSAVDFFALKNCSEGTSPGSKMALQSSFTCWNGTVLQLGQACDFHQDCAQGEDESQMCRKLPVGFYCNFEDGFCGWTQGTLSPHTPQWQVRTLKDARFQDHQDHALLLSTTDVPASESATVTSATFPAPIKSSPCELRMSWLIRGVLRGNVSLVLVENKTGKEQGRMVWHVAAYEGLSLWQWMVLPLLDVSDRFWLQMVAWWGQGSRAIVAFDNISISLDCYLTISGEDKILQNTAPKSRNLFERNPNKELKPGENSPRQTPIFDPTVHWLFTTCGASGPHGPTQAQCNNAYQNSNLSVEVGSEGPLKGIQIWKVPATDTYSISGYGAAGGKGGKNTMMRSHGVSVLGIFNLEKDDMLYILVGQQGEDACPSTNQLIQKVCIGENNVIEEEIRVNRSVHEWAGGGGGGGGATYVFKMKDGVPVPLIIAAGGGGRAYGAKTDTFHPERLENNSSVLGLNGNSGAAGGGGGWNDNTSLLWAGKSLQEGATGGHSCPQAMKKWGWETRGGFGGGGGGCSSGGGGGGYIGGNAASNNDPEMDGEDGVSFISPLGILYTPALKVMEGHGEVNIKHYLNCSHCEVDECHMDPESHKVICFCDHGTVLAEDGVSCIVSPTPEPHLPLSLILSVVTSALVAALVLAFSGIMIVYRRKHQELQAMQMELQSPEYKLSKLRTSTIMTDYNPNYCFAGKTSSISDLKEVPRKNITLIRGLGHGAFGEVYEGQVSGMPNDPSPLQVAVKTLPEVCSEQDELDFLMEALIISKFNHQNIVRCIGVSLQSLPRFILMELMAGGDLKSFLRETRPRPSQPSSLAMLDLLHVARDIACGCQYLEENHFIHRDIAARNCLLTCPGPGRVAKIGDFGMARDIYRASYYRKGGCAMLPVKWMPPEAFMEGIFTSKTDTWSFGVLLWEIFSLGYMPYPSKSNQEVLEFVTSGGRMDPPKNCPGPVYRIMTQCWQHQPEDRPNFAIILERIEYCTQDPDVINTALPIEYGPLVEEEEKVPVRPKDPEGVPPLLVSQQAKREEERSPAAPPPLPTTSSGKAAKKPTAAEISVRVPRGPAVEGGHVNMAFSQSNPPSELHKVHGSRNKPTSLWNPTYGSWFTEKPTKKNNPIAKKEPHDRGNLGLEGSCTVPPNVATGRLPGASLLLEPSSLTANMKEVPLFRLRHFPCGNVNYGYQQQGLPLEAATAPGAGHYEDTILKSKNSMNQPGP

For `Cc1cc(Nc2ncc(Cl)c(Nc3cn(C)nc3S(=O)(=O)C(C)C)n2)c(OC(C)C)cc1C1CCNCC1`, the pIC50 was 7.80 in assay [1] and 6.70 in the assay with NCI-H2228.
As to `Cc1cc(Nc2ncc(Cl)c(Nc3cn(C)nc3S(=O)(=O)CC(C)C)n2)c(OC(C)C)cc1C1CCNCC1`, the pIC50 in assay [1] was 7.62; in the assay with NCI-H2228, 6.71.
On to `CNC(=O)c1nn(C)cc1Nc1nc(Nc2cc(C)c(C3CCN(C)CC3)cc2OC2CC2)ncc1Cl`, for which the pIC50 in assay [2] was 7.92; in assay [3], 7.62; in the assay with NCI-H2228, 6.18.
Turning to `Cc1cc(Nc2ncc(C)c(Nc3cn(C)nc3S(=O)(=O)C(C)C)n2)c(OC2CC2)cc1C1CCN(C)CC1`, the pIC50 with NCI-H2228 is 7.16.
For `Cc1cc(Nc2ncc(Cl)c(Nc3cn(C)nc3S(=O)(=O)C(C)C)n2)c(OC2CC2)cc1[C@H]1CC[C@@H](NC(C)C)CC1`, in assay [4], the “Ratio IC50” value worked out at 15. The pIC50 in assay [2] was 8.30; in assay [3], 8.00; with NCI-H2228 it was 7.14.
In the case of `Cc1cc(Nc2ncc(Cl)c(Nc3cn(C)nc3S(=O)(=O)N(C)C)n2)c(OC(C)C)cc1C1CCNCC1`, the figures for the pIC50 in assay [2] and in assay [3] were 5.18 and less than 5.00, respectively.
For the molecule `Cc1cc(Nc2ncc(Cl)c(Nc3cn(C)nc3S(=O)(=O)C(C)C)n2)c(OC2CC2)cc1C1CCOCC1`, the “Ratio IC50” value in assay [4] is reported as 21. The negative logarithm of the IC50 (pIC50) in assay [1] was 7.74; in the assay with NCI-H2228 it was 6.76.
For `CCn1cc(Nc2nc(Nc3cc(C)c(C4CCNCC4)cc3OC(C)C)ncc2Cl)c(S(=O)(=O)C(C)C)n1`, the pIC50 in assay [1] was 7.17; in assay [2] it was 7.70; in assay [3], 7.55; with NCI-H2228 it was 6.12.
`Cc1cc(Nc2ncc(Cl)c(Nc3cn(C4CC4)nc3S(=O)(=O)C(C)C)n2)c(OC(C)C)cc1C1CCNCC1`: the pIC50 in assay [1] was 7.43; in the assay with NCI-H2228, 6.61.
In the assay on NCI-H2228, `CCN(CC)[C@H]1CC[C@H](c2cc(OC3CC3)c(Nc3ncc(Cl)c(Nc4cn(C)nc4S(=O)(=O)C(C)C)n3)cc2C)CC1` had a pIC50 of 7.17.
Still for that read-out and setting: the value for `CCN(CC)[C@H]1CC[C@@H](c2cc(OC3CC3)c(Nc3ncc(Cl)c(Nc4cn(C)nc4S(=O)(=O)C(C)C)n3)cc2C)CC1` was 7.22.
With `Cc1cc(Nc2ncc(C#N)c(Nc3cn(C)nc3S(=O)(=O)C(C)C)n2)c(OC2CC2)cc1C1CCN(C)CC1`, in the assay with NCI-H2228, the pIC50 was 7.06.
With `Cc1cc(Nc2ncc(Cl)c(Nc3cn(C)nc3S(=O)(=O)C(C)C)n2)c(OC2CC2)cc1C1CCN(C)CC1`, the pIC50 in assay [2] was 9.00; in the assay with NCI-H2228 it was 7.41.
For `Cc1cc(Nc2ncc(Cl)c(Nc3cn(C)nc3S(=O)(=O)C(C)C(C)C)n2)c(OC(C)C)cc1C1CCNCC1` (configuration not stated), the pIC50 was less than 5.00 in assay [1], 6.12 in assay [2], 5.41 in assay [3] and less than 5.00 with NCI-H2228.
For the molecule `Cc1cc(Nc2ncc(Cl)c(Nc3cn(C)nc3S(=O)(=O)C(C)C)n2)c(OC2CC2)cc1[C@H]1CC[C@H](NC(C)C)CC1`, the “Ratio IC50” value in assay [4] was 16. For the same molecule, the pIC50 in assay [1] is 8.30; in the assay with NCI-H2228 it was 7.27.
`Cc1cc(Nc2ncc(Cl)c(Nc3cn(C)nc3S(=O)(=O)C(C)C)n2)c(OC2CC2)cc1[C@H]1CC[C@H](NC(=O)C2CC2)CC1` had a pIC50 in the assay with NCI-H2228 of 6.81.
Molecule `Cc1cc(Nc2ncc(Cl)c(Nc3cn(C)nc3S(=O)(=O)C(C)C)n2)c(OC2CC2)cc1[C@H]1CC[C@H](NCCN(C)C)CC1` showed a pIC50 in the assay on NCI-H2228 of 6.68.
